Measured values as given in patent US9012489B2, “Phenyl-3-aza-bicyclo[3.1.0]hex-3-yl-methanones and the use thereof as medicament” (Boehringer Ingelheim International GmbH, priority 2011, dated 2015).

target: T1, GlyT1 transporter (Homo sapiens, UniProt P48067); test: GlyT1 assay: 3H-glycine uptake into SK-N-MC cells (Cytostar-T format); format: cell-based; conditions: glycine uptake in human SK-N-MC cells endogenously expressing GlyT1; 500 nM glycine, 1% DMSO, signal recorded over 60 min
T1 construct: endogenously expressing the GlyT1 transporter; host or cells: SK-N-MC human neuroblastoma cells
T1 sequence (P48067 1-706): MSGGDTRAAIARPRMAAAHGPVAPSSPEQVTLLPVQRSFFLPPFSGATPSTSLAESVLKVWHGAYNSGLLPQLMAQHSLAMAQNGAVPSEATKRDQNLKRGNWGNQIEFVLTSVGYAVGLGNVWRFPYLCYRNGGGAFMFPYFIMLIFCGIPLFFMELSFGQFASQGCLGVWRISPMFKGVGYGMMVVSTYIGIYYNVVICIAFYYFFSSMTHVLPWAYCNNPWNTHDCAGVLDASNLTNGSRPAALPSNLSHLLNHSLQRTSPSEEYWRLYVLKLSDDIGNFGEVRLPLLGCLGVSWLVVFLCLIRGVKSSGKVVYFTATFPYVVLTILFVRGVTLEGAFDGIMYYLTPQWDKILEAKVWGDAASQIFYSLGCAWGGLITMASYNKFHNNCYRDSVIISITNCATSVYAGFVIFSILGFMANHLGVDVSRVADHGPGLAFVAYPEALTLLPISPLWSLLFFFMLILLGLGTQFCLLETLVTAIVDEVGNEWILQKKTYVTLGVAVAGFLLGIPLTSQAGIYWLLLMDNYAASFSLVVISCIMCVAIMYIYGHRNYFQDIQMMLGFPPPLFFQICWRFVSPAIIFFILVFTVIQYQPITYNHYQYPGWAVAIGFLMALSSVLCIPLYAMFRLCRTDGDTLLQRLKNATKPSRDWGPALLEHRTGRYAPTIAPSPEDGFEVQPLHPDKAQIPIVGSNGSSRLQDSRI
Description: Cells expressing either endogenously the GlyT1 transporter like JAR cells (human placental choriocarcinoma cells; e.g. WO 2008/002583) or SK-N-MC cells (human neuroblastoma cells; Depoortere et al., 2005. Neuropsychopharmacology 30:1963-1985) or primary neurons or cells which have been transfected with a plasmid encoding the cDNA of a functional GlyT1 transporter and stably or transiently express GlyT1 (e.g. WO 2006/08200) can be used to monitor glycine uptake in cells. Different protocols for determination of the glycine uptake into the cells described above can be applied in order to identify and rank compounds which interfere with glycine uptake in the selected cell.
Compounds outlined in the examples below were characterized using human SK-N-MC cells (ATCC number HTB-10) endogenously expressing the GlyT1 transporter which is responsible for the uptake of glycine into these cells and the uptake of glycine into these cells is monitored using the Cytostar-T assay format (GE Healthcare, RPNQ0162) which is based on the radioactive glycine taken up by the cells and brought into proximity with the scintillant contained within the base of the plate. The radioactive decay is converted to a light signal based on the integration of the scintillation matrix into the assay plate. The uptake is recorded as kinetic and the slope of the measured counts over time is used to calculate IC50.
In detail, SK-N-MC cells are seeded into 96-well Cytostar-T assay plates at a density of 200,000 cells/well and grown for 16-18 hours to confluence in growth medium as recommended by ATCC. Before starting the assay, cells are washed once with HBSS (Hank's buffered salt solution; Sigma, H8264) cont. 5 mM alanine (referred in here as HBSS/Ala) and afterwards the following reagents are added: • 1. 80 μl/well HBSS/Ala • 2. 20 μl/well of HBSS/Ala containing 6× the concentration of compound in 6% DMSO • 3. approx. 5-10 min incubation • 4. 20 μl/well 3 μM glycine (^3H-glycine (Perkin Elmer, NET004001MC, specific activity: 52 Ci/mmol; diluted 1:1 with unlabelled glycine) in HBSS/Ala.
In the final assay, glycine concentration is 500 nM (250 nM derived from the ^3H-glycine Perkin Elmer, 250 nM unlabelled glycine), DMSO concentration is 1%.
The assay plate is immediately after addition of the ^3H-glycine placed into a Micro-Beta Counter (Perkin Elmer) and the signal is recorded over 60 min.
To calculate uptake, the slope in the linear range of the kinetics is determined using GraphPadPrism and for the different slopes at the selected concentrations IC50 are calculated by curve fitting using the software GraphPadPrism.
Maximal glycine uptake in every experiment is determined by incubation of SK-N-MC cells with substrate but without inhibitor. Unspecific uptake of glycine by the cells is determined by incubating the cells with substrate and a reference GlyT1 inhibitor e.g. 10 μM RG-1678 (Pinard et al., 2010, J. Med. Chem. 53(12):4603-14).
Compounds are diluted from 10 mM stocks and in general, for IC50 determination 8 compound concentrations are used.

Row | Structure (SMILES) | IC50 [µM]
1 | C[C@H](Oc1ccc(C#N)cc1C(=O)N1CC2CC2(c2noc(C(F)(F)F)n2)C1)C(F)(F)F (single isomer, unassigned) [Example 90, 4-(2,2,2-Trifluoro-1-methyl-ethoxy)-3-[1-(5-trifluoromethyl-[1,2,4]oxadiazol-3-yl)-3-aza-bicyclo[3.1.0]hexane-3-carbonyl]-benzonitrile] | 2.25
2 | C[C@H](Oc1ccc(S(C)(=O)=O)cc1C(=O)N1CC2CC2(c2noc(C3CC3)n2)C1)C(F)(F)F (single isomer, unassigned) [Example 10, [1-(5-Cyclopropyl-[1,2,4]oxadiazol-3-yl)-3-aza-bicyclo[3.1.0]hex-3-yl]-[5-methanesulfonyl-2-(2,2,2-trifluoro-1-methyl-ethoxy)-phenyl]-methanone] | 0.042
3 | CS(=O)(=O)c1ccc(O[C@@H]2CCOC2)c(C(=O)N2CC3CC3(c3noc(C(F)(F)F)n3)C2)c1 (single isomer, unassigned) [Example 139, [5-Methanesulfonyl-2-(tetrahydro-furan-3-yloxy)-phenyl]-[1-(5-trifluoromethyl-[1,2,4]oxadiazol-3-yl)-3-aza-bicyclo[3.1.0]hex-3-yl]-methanone] | 0.253
4 | C[C@@H](Oc1ccc(C#N)cc1C(=O)N1CC2CC2(c2noc(C(F)(F)F)n2)C1)C(F)(F)F (mixture of isomers) [Example 91, 4-(2,2,2-Trifluoro-1-methyl-ethoxy)-3-[1-(5-trifluoromethyl-[1,2,4]oxadiazol-3-yl)-3-aza-bicyclo[3.1.0]hexane-3-carbonyl]-benzonitrile] | 0.112
5 | C[C@H](Oc1ccc(S(C)(=O)=O)cc1C(=O)N1CC2CC2(c2noc(C3(C)CC3)n2)C1)C(F)(F)F (mixture of isomers) [Example 134, [5-Methanesulfonyl-2-(2,2,2-trifluoro-1-methyl-ethoxy)-phenyl]-{1-[5-(1-methyl-cyclopropyl)-[1,2,4]oxadiazol-3-yl]-3-aza-bicyclo[3.1.0]hex-3-yl}-methanone] | 0.008
6 | C[C@@H](Oc1ccc(S(C)(=O)=O)cc1C(=O)N1CC2CC2(c2noc(C3CC3)n2)C1)C(F)(F)F (single isomer, unassigned) [Example 44, [1-(5-Cyclopropyl-[1,2,4]oxadiazol-3-yl)-3-aza-bicyclo[3.1.0]hex-3-yl]-[5-methanesulfonyl-2-(2,2,2-trifluoro-1-methyl-ethoxy)-phenyl]-methanone] | 0.397
7 | C[C@H](Oc1ccc(S(C)(=O)=O)cc1C(=O)N1CC2(C)CC2(c2noc(C(F)(F)F)n2)C1)C(F)(F)F (single isomer, unassigned) [Example 159, [5-Methanesulfonyl-2-(2,2,2-trifluoro-1-methyl-ethoxy)-phenyl]-[1-methyl-5-(5-trifluoromethyl-[1,2,4]oxadiazol-3-yl)-3-aza-bicyclo[3.1.0]hex-3-yl]-methanone] | 0.953

More lines, now with the values ahead:

Row | IC50 [µM] | Structure (SMILES)
8 | 0.021 | C[C@@H](Oc1ccc(S(C)(=O)=O)cc1C(=O)N1CC2CC2(c2nnc(C(F)(F)F)o2)C1)C(F)(F)F (mixture of isomers) [Example 122, [5-Methanesulfonyl-2-(2,2,2-trifluoro-1-methyl-ethoxy)-phenyl]-[1-(5-trifluoromethyl-[1,3,4]oxadiazol-2-yl)-3-aza-bicyclo[3.1.0]hex-3-yl]-methanone]
9 | 0.016 | C[C@H](Oc1ccc(S(C)(=O)=O)cc1C(=O)N1CC2CC2(c2nnc(C(F)(F)F)o2)C1)C(F)(F)F (single isomer, unassigned) [Example 126, [5-Methanesulfonyl-2-(2,2,2-trifluoro-1-methyl-ethoxy)-phenyl]-[1-(5-trifluoromethyl-[1,3,4]oxadiazol-2-yl)-3-aza-bicyclo[3.1.0]hex-3-yl]-methanone]
10 | 0.01 | Cc1conc1C12CC1CN(C(=O)c1cc(S(C)(=O)=O)ccc1O[C@@H](C)C(F)(F)F)C2 (mixture of isomers) [Example 108, [5-Methanesulfonyl-2-(2,2,2-trifluoro-1-methyl-ethoxy)-phenyl]-[1-(4-methyl-isoxazol-3-yl)-3-aza-bicyclo[3.1.0]hex-3-yl]-methanone]
11 | 0.019 | C[C@@H](Oc1ccc(S(C)(=O)=O)cc1C(=O)N1CC2CC2(c2cc(C(F)(F)F)on2)C1)C(F)(F)F (mixture of isomers) [Example 49, [5-Methanesulfonyl-2-(2,2,2-trifluoro-1-methyl-ethoxy)-phenyl]-[1-(5-trifluoromethyl-isoxazol-3-yl)-3-aza-bicyclo[3.1.0]hex-3-yl]-methanone]
12 | 0.007 | C[C@@H](Oc1ccc(S(C)(=O)=O)cc1C(=O)N1CC2CC2(c2noc(C3(C(F)(F)F)CC3)n2)C1)C(F)(F)F (mixture of isomers) [Example 68, [5-Methanesulfonyl-2-(2,2,2-trifluoro-1-methyl-ethoxy)-phenyl]-{1-[5-(1-trifluoromethyl-cyclopropyl)-[1,2,4]oxadiazol-3-yl]-3-aza-bicyclo[3.1.0]hex-3-yl}-methanone]
13 | 0.008 | C[C@H](Oc1ccc(S(C)(=O)=O)cc1C(=O)N1CC2CC2(c2csc(C(F)(F)F)n2)C1)C(F)(F)F (mixture of isomers) [Example 26, [5-Methanesulfonyl-2-(2,2,2-trifluoro-1-methyl-ethoxy)-phenyl]-[1-(2-trifluoromethyl-thiazol-4-yl)-3-aza-bicyclo[3.1.0]hex-3-yl]-methanone]
14 | 0.011 | C[C@@H](Oc1ccc(S(C)(=O)=O)cc1C(=O)N1CC2CC2(c2nc(C3(C(F)(F)F)CC3)no2)C1)C(F)(F)F (mixture of isomers) [Example 156, [5-Methanesulfonyl-2-(2,2,2-trifluoro-1-methyl-ethoxy)-phenyl]-{1-[3-(1-trifluoromethyl-cyclopropyl)-[1,2,4]oxadiazol-5-yl]-3-aza-bicyclo[3.1.0]hex-3-yl}-methanone]
15 | 0.008 | C[C@H](Oc1ccc(S(C)(=O)=O)cc1C(=O)N1CC2CC2(c2noc(CC(F)(F)F)n2)C1)C(F)(F)F (mixture of isomers) [Example 61, [5-Methanesulfonyl-2-(2,2,2-trifluoro-1-methyl-ethoxy)-phenyl]-{1-[5-(2,2,2-trifluoro-ethyl)-[1,2,4]oxadiazol-3-yl]-3-aza-bicyclo[3.1.0]hex-3-yl}-methanone]
16 | 2.66 | C[C@H](Oc1ccc(S(C)(=O)=O)cc1C(=O)N1CC2CC2(c2nnc(C(F)(F)F)o2)C1)C(F)(F)F (single isomer, unassigned) [Example 127, [5-Methanesulfonyl-2-(2,2,2-trifluoro-1-methyl-ethoxy)-phenyl]-[1-(5-trifluoromethyl-[1,3,4]oxadiazol-2-yl)-3-aza-bicyclo[3.1.0]hex-3-yl]-methanone]
17 | 0.248 | CCS(=O)(=O)c1ccc(O[C@H](C)C(F)(F)F)c(C(=O)N2CC3CC3(c3cc(C(F)(F)F)on3)C2)c1 (single isomer, unassigned) [Example 106, [5-Ethanesulfonyl-2-(2,2,2-trifluoro-1-methyl-ethoxy)-phenyl]-[1-(5-trifluoromethyl-isoxazol-3-yl)-3-aza-bicyclo[3.1.0]hex-3-yl]-methanone]
